Results as given in patent publication US6197751A, “Thymosin α1 promotes tissue repair, angiogenesis and cell migration” (The United States of America as represented by the …, priority 1998, dated 2001).
Ends that are not written are not given here.

Experiments:
Monocytes = assay: Boyden chamber migration, monocytes; assay type: cell-based; details: for average number of cells that migrated ± SEM: Monocytes
Protocol: [The procedure below names another cell line; the source lists this cell line under the same test.] (§1) Several cell types were tested to determine if the migratory stimulation observed with Tα1 was specific. […] HUVEC migration assays were carried out in Boyden chambers using 12 ,m pore PVP free filters coated with either a 0.1 mg/ml or 0.05 mg/ml solution of collagen IV as previously reported (Malinda et al., FASEB J. 11:474, 1997). Each condition was assayed in triplicate wells at least three times unless indicated. HCAECs, AOSMCs, FFs, HT1080 cells and neutrophils were cultured or isolated and assayed for migration as previously reported (Malinda et al., FASEB J. 11:474, 1997).

[1] = system: HT1080 cells (human fibrosarcoma cell line); assay: Boyden chamber migration, HT1080 cells; assay type: cell-based
Protocol: (§2) Human umbilical vein endothelial cells (HUVECs) were isolated from freshly delivered cords according to Jaffe et al. (J. Clin. Invest. 52: 2745, 1973) and grown on Nunclon dishes (Nunc, Denmark) in RPMI 1640 (Life Technologies, Gaithersburg, Md.) supplemented with 20% bovine calf serum (Hyclone Laboratories, Logan Utah), 100 U/ml penicillin/streptomycin (Life Technologies, Gaithersburg, Md.), 50 μg/ml gentamycin (Life Technologies, Gaithersburg, Md.), 2.7 μg/ml amphotericin B (fungizone)(Life Technologies, Gaithersburg, Md.), 5 U/ml sodium heparin (Fisher Scientific, Pittsburgh, Pa.) and 200 μg/ml endothelial cell growth supplement (ECGS) (Collaborative Research, Bedford, Mass.). Cells between passage 3 and 5 were used for all experiments. Human coronary artery endothelial cells (HCAECs) were grown on Nunclon dishes in the HUVEC media. Foreskin fibroblasts (Ffs) were grown in DMEM supplemented with 10% fetal bovine serum (Hyclone) on Falcon (Becton Dickinson, N.J.) dishes. HT1080 cells (human fibrosarcoma cell line) were grown in Falcon flasks in DMEM supplemented with 10% fetal bovine serum. Neutrophils were freshly isolated from buffy coats as previously reported (Kibbey et al., J. Cell Phys. 160:185, 1994). Human aortic smooth muscle cells (AOSMCs) were grown in smooth muscle cell media (Clonetics, San Diego, Calif.) on Nunclon dishes.
as §1

rats = assay: Full thickness punch biopsy wound healing; assay type: in vivo; details: for reepithelization of the wound / collagen production (Masson's trichrome) / histology of dermis near dermal and epidermal junction: 8 day punch wounds; for wound healing compared to untreated wounds: rats
Protocol: Six full thickness 8 mm punch biopsy wounds were made on the dorsal surface of rats as previously reported (Bhartiya et al., J. Cell. Physiol. 150:312, 1992; Sihhu et al., J. Cell. Physiol. 169:108, 1996) and Tα1 was given topically at the time of wounding (5 μg in 50 μl) and again after 48 hr. Controls for the topical treatment received identical amounts of saline at the time of wounding and at 48 hr. Three rats in each group also received intraperitoneal injections at the time of wounding (60 μg in 300 μl) and again every other day. Controls for these animals received identical amounts of saline i.p. on the same injection schedule. At days 8 and 9 post-wounding, tissue was collected and fixed in 10% buffered formalin (i.p. n=18 samples; topical n=9 samples). The samples were sectioned and stained with H&E and Masson's Trichrome (American Histolabs, Gaithersburg, Md.).

HUVECs = assay: Tube formation assay on Matrigel; assay type: cell-based, human
Protocol: Migration and differentiation during angiogenesis can be studied in vitro using Matrigel, a basement membrane matrix on which HUVECs undergo capillary-like tube formation (Grant et al., J. Cell. Physiol. 153: 614, 1992; Kubota et al., J. Cell Biol. 107: 1589, 1988). The tube formation assay was performed according to Grant et al. (J. Cell. Physiol. 153:614, 1992) with the following modifications. Twenty-four well Nunclon plates were coated with 320 μl of Matrigel (10 mg/ml) and incubated at 37° C. for 30 min to promote gelling. 30,000 HUVECs were resuspended in growth media and added to each well with 1, 10, 100 and 1000 ng of synthetic Tα1, 20 and 200 μg/ml ECGS (a bovine brain extract that contains aFGF and bFGF and acts as a positive control) or media alone. The final serum concentrations were 10% or 5%. After 18 h, plates were fixed with Diff-Quik (Baxter Healthcare Corporation, McGraw Park, Ill.) and the length of the tubes was measured using an Olympus CK2 microscope with a 2× objective connected to a Javelin CCTV camera with a 3.3× coupler and NIH Image 1.57 software. Three random measurements of each of four wells at each culture condition were measured. Each experiment was repeated at least three times.

foreskin fibroblasts = assay: Boyden chamber migration, foreskin fibroblasts; assay type: cell-based; details: for average number of cells that migrated ± SEM: FF
Protocol: as §2, §1

HUVEC = assay: In vitro "scratch" wound closure assay; assay type: cell-based, human; details: media alone 1%
Protocol: During angiogenesis the cells may be presented with a constant level of Tα1. The "scratch" wound closure assay was used to assess the potential effects of constant doses of Tα1 on cell migration. Confluent monolayers were "scratch" wounded using the tip of a universal blue pipette tip and rinsed with PBS. Tα1 (1, 10, 100, and 1000 ng/ml) or ECGS (200 μg/ml) was added to the wells in fresh media lacking ECGS but containing 10 mM thymidine to inhibit cell proliferation (Malinda et al., FASEB J. 11: 474, 1997). Antibody inhibition experiments were carried out as described above by wounding the cell monolayer and then adding either anti-Tα1 polyclonal antibody (1/25, 1/50 dilution) or pre-immune serum (1/25 dilution), or fresh media to the plate.

thymosin α1 (SDAAVDTSSEITTKDLKEKKEVVEEAEN; not fully specified; ends and bridges not checked; UniProt P06454 2-29, looked up) [Tα1, 28 amino acid peptide which results from the cleavage of the N-terminal region of prothymosin α1]
Monocyte migration (Monocytes; 100 ng/ml): appeared to be inhibited | Monocyte migration (Monocytes; 1000 ng/ml of Tα1): increased | average number of cells that migrated ± SEM (Monocytes; Thymosin α1 100 ng/ml): 20 ± 5.4 | average number of cells that migrated ± SEM (Monocytes; Thymosin α1 1000 ng/ml): 80 ± 7.6 | average number of cells that migrated ± SEM ([1]; HT1080, Thymosin α1 1 ng/ml): 2.4 ± 0.8 | average number of cells that migrated ± SEM ([1]; HT1080, Thymosin α1 10 ng/ml): 1.8 ± 0.4 | average number of cells that migrated ± SEM ([1]; HT1080, Thymosin α1 100 ng/ml): 1.3 ± 0.7 | average number of cells that migrated ± SEM ([1]; HT1080, Thymosin α1 1000 ng/ml): 0.9 ± 0.4 | migration toward Tα1 ([1]; HT1080 fibrosarcoma cells): did not demonstrate any significant migration | reepithelization of the wound (rats; intraperitoneal on alternate days 60 μg/300 μl): Complete reepithelization | wound healing compared to untreated wounds (rats; intraperitoneal, 60 μg in 300 μl every other day): significantly accelerated wound healing | collagen production (Masson's trichrome) (rats; intraperitoneal): enhanced collagen production | histology of dermis near dermal and epidermal junction (rats; intraperitoneal): capillary ingrowth in granulation tissue and hypercellular dermis | reepithelization of the wound (rats; topical 5 μg/50 μl): complete reepithelization of the wound with 2-3 layers of thick epidermis | wound healing compared to untreated wounds (rats; topical, 5 μg in 50 μl at wounding and after 48 hr): significantly accelerated wound healing | collagen production (Masson's trichrome) (rats; topical): enhanced collagen production | histology of dermis near dermal and epidermal junction (rats; topical): capillary ingrowth in granulation tissue and hypercellular dermis | tube formation (HUVECs; 1 or 10 ng/ml Tα1, 5% serum): did not form tubes | tube formation (HUVECs; 100 and 1000 ng/ml Tα1, 5% serum): formed highly organized tubes | tube formation vs control cells (HUVECs; 100 or 1000 ng/ml Tα1, 10% serum): formed more tubes than control cells | average length of tubes (HUVECs; 100 or 1000 ng/ml Tα1, 10% serum, 18 h, media alone 208 μm): 316-324 μm | average number of cells that migrated ± SEM (foreskin fibroblasts; Thymosin α1 1 ng/ml): 5 ± 0.4 | average number of cells that migrated ± SEM (foreskin fibroblasts; Thymosin α1 10 ng/ml): 5 ± 0.4 | average number of cells that migrated ± SEM (foreskin fibroblasts; Thymosin α1 100 ng/ml): 4.8 ± 0.7 | average number of cells that migrated ± SEM (foreskin fibroblasts; Thymosin α1 1000 ng/ml): 5.2 ± 0.5 | migration toward Tα1 (foreskin fibroblasts; Foreskin fibroblasts): did not demonstrate any significant migration | wound closure (HUVEC; 100 ng/ml Tα1, 2 h): 7% | wound closure (HUVEC; 1000 ng/ml Tα1, 2 h after wounding): 14%
